Here are results for three molecules from patent publication EP4768487A1, “FUSED LACTAM RING COMPOUND AND USE THEREOF” (Chengdu Zenitar Biomedical Technology Co., Ltd., priority 2023, dated 2025).

The target in test [1] is T1, PARP-7 (Homo sapiens, UniProt Q7Z3E1).
T1 sequence (Q7Z3E1 1-657): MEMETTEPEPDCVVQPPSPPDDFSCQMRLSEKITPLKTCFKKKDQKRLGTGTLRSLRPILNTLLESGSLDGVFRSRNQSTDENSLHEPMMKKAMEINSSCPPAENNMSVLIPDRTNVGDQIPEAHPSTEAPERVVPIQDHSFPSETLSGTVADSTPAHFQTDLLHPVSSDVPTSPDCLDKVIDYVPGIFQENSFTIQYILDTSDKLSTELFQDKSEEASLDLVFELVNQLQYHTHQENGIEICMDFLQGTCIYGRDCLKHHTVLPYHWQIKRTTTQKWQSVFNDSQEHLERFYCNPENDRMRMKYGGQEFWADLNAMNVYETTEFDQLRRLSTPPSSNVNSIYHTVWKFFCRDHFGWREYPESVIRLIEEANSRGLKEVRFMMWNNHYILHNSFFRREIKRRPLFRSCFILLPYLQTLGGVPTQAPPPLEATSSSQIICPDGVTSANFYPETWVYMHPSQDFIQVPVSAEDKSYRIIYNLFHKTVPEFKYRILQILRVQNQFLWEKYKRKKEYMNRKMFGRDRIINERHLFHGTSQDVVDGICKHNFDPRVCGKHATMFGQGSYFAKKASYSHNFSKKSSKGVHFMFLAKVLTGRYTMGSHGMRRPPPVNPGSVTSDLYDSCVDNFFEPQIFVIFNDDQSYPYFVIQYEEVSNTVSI
Kind of test: Assay for enzymatic selectivity for PARP family: PARP-7.

In test [2] the target is T2, PARP-12 (Homo sapiens, UniProt Q9H0J9).
T2 sequence (Q9H0J9 1-701): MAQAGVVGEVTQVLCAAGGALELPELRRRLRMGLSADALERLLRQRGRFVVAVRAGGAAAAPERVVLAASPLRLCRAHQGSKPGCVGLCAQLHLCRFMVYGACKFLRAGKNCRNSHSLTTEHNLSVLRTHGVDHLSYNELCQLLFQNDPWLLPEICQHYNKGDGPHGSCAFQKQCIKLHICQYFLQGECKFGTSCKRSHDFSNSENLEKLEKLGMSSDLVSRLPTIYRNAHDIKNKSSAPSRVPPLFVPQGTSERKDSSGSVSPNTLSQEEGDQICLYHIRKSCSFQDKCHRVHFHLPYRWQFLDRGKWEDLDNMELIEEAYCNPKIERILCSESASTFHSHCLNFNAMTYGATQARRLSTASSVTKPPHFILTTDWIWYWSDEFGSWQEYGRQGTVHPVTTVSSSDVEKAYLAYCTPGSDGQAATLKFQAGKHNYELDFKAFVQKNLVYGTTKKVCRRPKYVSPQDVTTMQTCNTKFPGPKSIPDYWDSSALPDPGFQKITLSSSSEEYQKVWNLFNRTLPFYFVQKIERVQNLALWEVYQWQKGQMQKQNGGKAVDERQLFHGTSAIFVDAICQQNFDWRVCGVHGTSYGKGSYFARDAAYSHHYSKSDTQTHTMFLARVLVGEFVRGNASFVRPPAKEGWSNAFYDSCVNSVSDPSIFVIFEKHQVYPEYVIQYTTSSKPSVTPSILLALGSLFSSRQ
Kind of test: Assay for enzymatic selectivity for PARP family: PARP-12.

For test [3], the target named is T3, PARP-5A (Homo sapiens, UniProt O95271).
T3 sequence (O95271 1-1327): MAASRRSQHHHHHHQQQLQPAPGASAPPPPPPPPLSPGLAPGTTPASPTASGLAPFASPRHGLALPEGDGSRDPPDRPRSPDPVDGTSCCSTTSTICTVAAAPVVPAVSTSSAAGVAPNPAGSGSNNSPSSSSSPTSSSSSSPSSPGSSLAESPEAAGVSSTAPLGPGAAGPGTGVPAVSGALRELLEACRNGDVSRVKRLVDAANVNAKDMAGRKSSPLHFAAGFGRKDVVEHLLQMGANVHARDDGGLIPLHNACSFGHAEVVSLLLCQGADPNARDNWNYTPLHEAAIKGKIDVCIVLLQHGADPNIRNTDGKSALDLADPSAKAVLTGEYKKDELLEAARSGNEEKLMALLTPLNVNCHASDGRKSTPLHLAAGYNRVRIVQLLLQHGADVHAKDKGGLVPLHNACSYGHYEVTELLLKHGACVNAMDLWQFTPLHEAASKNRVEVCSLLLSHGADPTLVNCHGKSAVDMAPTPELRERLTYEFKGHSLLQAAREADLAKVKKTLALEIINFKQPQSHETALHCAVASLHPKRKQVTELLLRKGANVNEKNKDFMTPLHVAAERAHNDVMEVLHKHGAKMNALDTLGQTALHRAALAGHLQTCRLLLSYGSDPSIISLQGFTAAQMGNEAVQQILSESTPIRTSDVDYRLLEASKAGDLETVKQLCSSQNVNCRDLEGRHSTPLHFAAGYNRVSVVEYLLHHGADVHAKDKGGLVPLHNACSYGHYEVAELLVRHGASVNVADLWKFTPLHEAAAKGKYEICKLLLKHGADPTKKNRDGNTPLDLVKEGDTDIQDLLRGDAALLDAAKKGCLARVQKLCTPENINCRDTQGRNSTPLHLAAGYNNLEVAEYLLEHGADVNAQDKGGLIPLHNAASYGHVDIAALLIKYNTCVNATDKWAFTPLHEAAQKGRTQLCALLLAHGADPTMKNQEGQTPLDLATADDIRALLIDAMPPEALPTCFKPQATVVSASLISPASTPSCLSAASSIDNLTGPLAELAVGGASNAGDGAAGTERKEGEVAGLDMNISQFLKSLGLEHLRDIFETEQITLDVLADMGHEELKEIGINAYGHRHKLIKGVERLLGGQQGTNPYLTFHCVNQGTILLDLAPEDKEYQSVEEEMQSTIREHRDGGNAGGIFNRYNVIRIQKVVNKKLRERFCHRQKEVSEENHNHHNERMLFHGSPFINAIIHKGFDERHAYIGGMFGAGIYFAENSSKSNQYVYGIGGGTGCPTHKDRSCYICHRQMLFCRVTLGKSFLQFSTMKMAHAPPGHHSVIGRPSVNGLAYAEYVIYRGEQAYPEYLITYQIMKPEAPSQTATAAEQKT
Put plainly: biochemical.

In test [4] the test system is BRCA-mutated MDA-MB-436 cells. Put plainly: Anti-proliferative activity against cells (CCK8): MDA-MB-436. It counts as cell-based. To be noted: Homo sapiens, 72 h + 96 h culture.
In test [5] the test system is MDA-MB-436 breast cancer subcutaneous xenograft tumor model. Put plainly: In vivo pharmacodynamic study of compound 2 in MDA-MB-436 subcutaneous xenograft tumor model. To be noted: oral once daily, 30 days.
Method: Experimental process: Twenty-four female NOD/SCID mice were used in the experiment. […] All groups were subjected to oral administration once daily. Meanwhile, the mice were weighed every 2 days, and the length and width of the tumors were measured with a vernier caliper. After 30 days of administration, the tumor-bearing mice were anesthetized and sacrificed. The tumor tissues were dissected, weighed, and photographed, and the tumor growth inhibition rates were calculated.

Bounds are passed on as bounds.

A word on the IC50: it is the concentration that inhibits the measured activity by half. As to `CNC(=O)c1ccc(N2CCN(C[C@H]3CCc4nc(C)c(=O)[nH]c4C3)CC2)c(F)n1` [Example 45, (S)-6-Fluoro-N-methyl-5-(4-((2-methyl-3-oxo-3,4,5,6,7,8-hexahydroquinoxaline-6-yl)methyl)piperazin-1-yl)picolinamide], the IC50 in test [1] turned out to be 5990 nM; in test [2], 862 nM; in test [3], 1930 nM.

In the case of `CNC(=O)c1ccc(N2CCN(CC3Cc4[nH]c(=O)c(C)cc4CO3)CC2)c(Cl)n1` (centres unmarked) [Example 74, 6-Chloro-N-methyl-5-(4-((3-methyl-2-oxo-1,5,7,8-tetrahydro-2H-pyrano[4,3-b]pyridin-7-yl)methyl)piperazin-1-yl)picolinamide], the IC50 in test [4] turned out to be 7 nM.

Take `CCc1cc2c([nH]c1=O)CC(CN1CCN(c3ccc(C(=O)NC)nc3F)CC1)OC2` (centres unmarked) [Compound 2, 5-(4-((3-Ethyl-2-oxo-1,5,7,8-tetrahydro-2H-pyrano[4,3-b]pyridin-7-yl)methyl)piperazin-1-yl)-6-fluoro-N-methyl picolinamide]: the “tumor growth inhibition rate” value in test [5] (1 mg/kg) worked out at 92.61%; in test [5] (3 mg/kg), 95.74%. Moreover, the “tumor inhibitory effect compared with the reference drug Olaparib 100 mg/kg group (in words)” value in test [5] (3 mg/kg) is given as “significantly superior”. Moreover, the IC50 is above 10000 nM in test [1], 1990 nM in test [2], 975 nM in test [3] and 0.25 nM in test [4].
